For one data set, the system named is Escherichia coli DH5α. The class given is cell-based. Conditions: broth microdilution, 10^4 CFUs per mL, 18 h at 35 °C; MIC = lowest concentration that completely inhibited bacterial growth; final conc. 0.39 to 100. How it is done:
(§1) The antimicrobial activities of peptides 1–8 against Gram-positive Staphylococcus aureus, Gram-negative Escherichia coli DH5α, Pseudomonas aeruginosa, and multidrug-resistant P. aeruginosa (MDRP) were evaluated. The minimum inhibitory concentration (MIC) against these bacteria was measured as an indicator of antimicrobial activity, and the results are discussed in Table 2.
(§2) One type of Gram-positive bacteria, S. aureus NBRC 13276, and three Gram-negative bacteria, E. coli DH5α, P. aeruginosa NBRC 13275, and MDRP, were selected for the evaluation of the antimicrobial activity of the synthesized peptides. The selected bacterial strains were obtained from the Biological Resource Center, NITE (NBRC; Tokyo, Japan), and Escherichia coli DH5α cells were purchased from BioDynamics Laboratory, Inc. (Tokyo, Japan). The antimicrobial activities of the tested peptides 1–8 against each stain were examined by the standard broth microdilution method, as previously reported. Briefly, the bacteria were seeded and grown overnight at 37 °C on Agar media for other organisms i (Agar medium) and then collected with the media for other organisms ii (liquid medium), according to the 17th revision of Japanese Pharmacopoeia. Next, 10 μL of the peptide solution per well was added to each well of a sterile 96-well plate, and 90 μL per well of inoculation was mixed with 10^4 CFUs (colony forming units) per mL and added to each well, and the plate was incubated for 18 h at 35 °C.

The subject of a further data set is P. aeruginosa NBRC 13275. The class given is cell-based, Pseudomonas aeruginosa. Conditions: NBRC 13275, 18 h. How it is done:
as §1, §2

Data set [1] deals with multidrug-resistant P. aeruginosa (MDRP). The class given is cell-based, Pseudomonas aeruginosa. Conditions: multidrug-resistant (MDRP, 18 h). How it is done: as §1, §2
For another data set, the system named is S. aureus NBRC 13276. It counts as cell-based, Staphylococcus aureus. Conditions: NBRC 13276, 18 h. How it is done:
as §1, §2

In another data set the test system is human red blood cells. Briefly: Hemolysis activity against red blood cells. The settings on record: human RBCs in 172 mM Tris-HCl pH 7.6, 30 min at 37 °C, absorbance 535 nm; DMSO = 0%, M-Lycotoxin = 100%; final peptide conc. 100 to 0.39. How it is done: AMPs primarily target microbial membranes, leading to their antimicrobial activity through membrane lysis. However, it is important to consider their potential effects on human cell membranes, as this could raise concerns regarding cytotoxicity. […] Hemolytic activity was assessed by measuring the absorption at 535 nm, which indicates the leakage of red blood cell cytoplasmic contents and hemoglobin.
Human red blood cells (RBCs) were supplied by the Japanese Red Cross Society (Tokyo, Japan). The hemolytic assay of the synthesized peptides was performed as previously reported. Briefly, 5.0 mL of the total erythrocytes were washed three times with 172 mM Tris-HCl buffer (pH = 7.6, wash buffer:WB) and 1.0 mL of precipitated erythrocytes was diluted with 9.0 mL of WB. Then, 0.5 mL of the suspension was diluted in WB, and 50 µL of RBC solution was incubated with 50 µL of each peptide for 30 min at 37 °C (final peptide conc. from 100 to 0.39 μM). The suspensions were then centrifuged at 400 rpm for 5 min. The absorbance of the supernatant was measured at a wavelength of 535 nm. M-Lycotoxin [22], which is a typical hemolytic toxic peptide derived from Wolf spider, was used as a positive control, and the absorbance of the sample from DMSO and M-Lycotoxin treatment was defined as 0 and 100%, respectively.

The target of the next data set is Proteinase K (Parengyodontium album, UniProt P06873). The data set is described as follows: Digestion assay with proteinase K. It counts as in vitro ADME. Conditions: 0.002% (v/v) proteinase K, peptide 1 mM, 37 °C, 24 h; fragments by LC-MS. How it is done:
The chemical stability of 17KKV-Aib (1) was investigated using a digestion assay with proteinase K, which is a widely used representative protease for assessing sensitivity to digestive enzymes. Proteinase K is widely recognized for its ability to cleave peptide bonds on the carboxylic sides of aliphatic, aromatic, or highly hydrophobic amino acids. Peptide 1 was treated with proteinase K for 24 h, and the remaining peptide fragments were evaluated using liquid phase chromatography–mass spectrometry (LC-MS) analysis. […] All the peptides were synthesized using Fmoc-assisted solid-phase methods by Liberty Blue. […]
Each peptide (1 mM) was treated with 0.002% (v/v) Proteinase K, and the mixture was incubated at 37 °C for 2–24 h. […] The residual peptides were assessed by analytical HPLC using an InertSustainSwift C18 column (3 µm, 25 cm × 4.6 mm, solvent A: water containing 0.1% TFA, solvent B: MeCN containing 0.1% TFA, flow rate: 1.0 mL/min, gradient: 10–90% gradient of solvent B over 30 min). The digestion assay was performed in two independent experiments, and the average values from them were calculated. […]
Figure 4 Chemical stability of the peptides 1–8 against proteinase K. Each peptide was incubated with 0.002% (v/v) proteinase K for the indicated times at 37 °C, and the residuals were evaluated by LC-MS. […]

Consider one compound from paper PMC10451648 (Antibiotics, 2023).

Molecules are shown by their SMILES. Values after ≈ are worked out from the molar mass of the structure shown. “Also recorded” adds a separate entry of the source. Square brackets hold non-standard residues; d marks the D form. Peptide text beside a SMILES is read from it. Aib = CC(C)(N)C(=O)O

Chain of Proteinase K (P06873 106-384): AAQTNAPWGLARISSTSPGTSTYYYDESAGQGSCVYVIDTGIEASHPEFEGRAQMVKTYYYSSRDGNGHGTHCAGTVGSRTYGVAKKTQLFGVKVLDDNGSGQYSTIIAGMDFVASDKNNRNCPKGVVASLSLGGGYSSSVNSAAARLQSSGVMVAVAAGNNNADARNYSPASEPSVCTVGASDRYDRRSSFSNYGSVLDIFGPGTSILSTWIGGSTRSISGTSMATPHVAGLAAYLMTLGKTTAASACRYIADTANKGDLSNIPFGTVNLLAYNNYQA

Turning to `CC[C@H](C)[C@H](NC(=O)CN)C(=O)N[C@@H](CCCCN)C(=O)N[C@@H](CCCCN)C(=O)N[C@@H](Cc1ccccc1)C(=O)N[C@@H](CC(C)C)C(=O)N[C@@H](CCCCN)C(=O)N[C@@H](CO)C(=O)NC(C)(C)C(=O)N[C@@H](CCCCN)C(=O)N[C@@H](CCCCN)C(=O)N[C@@H](Cc1ccccc1)C(=O)N[C@H](C(=O)N[C@@H](CCCCN)C(=O)NC(C)(C)C(=O)N[C@@H](Cc1ccccc1)C(=O)N[C@@H](CCCCN)C(N)=O)C(C)C` [Peptide 1] (H-GIKKFLKS[Aib]KKFVK[Aib]FK-NH2), the “MIC, E. Coli DH5α, Gram(−)” value in the data set on Escherichia coli DH5α turned out to be 1.56 µM (≈ 3.11 µg/mL). The “MIC, P. aeruginosa, Gram(−)” value with P. aeruginosa NBRC 13275 turned out to be 3.125 µM (≈ 6.24 µg/mL). Further, in data set [1], the “MIC, MDRP” value came out at 6.25 µM (≈ 12.5 µg/mL). For the same compound, in the data set on S. aureus NBRC 13276, the “MIC, S. aureus, Gram(+)” value is 12.5 µM (≈ 24.9 µg/mL). Besides, the “Hemolysis (concentration at which hemolytic activity is exhibited)” value in the data set on human red blood cells is 100 µM. For the same compound, on Proteinase K, the “Cleavage site upon proteinase K treatment” value was “between 5th Phe and 6th Leu and 16th Phe and 17th Lys residues; also recorded: between the fifth Phe and sixth Leu residues”.
